This note sets out measurements from ChEMBL document CHEMBL1201862, “PubChem BioAssay data set” (2004).

Each structure is given as a SMILES string.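 Tested at 5 concentrations; 48 h exposure; 96-well plates; endpoints linearly interpolated, else capped at highest concentration. Here, GI50 denotes the concentration required for 50% inhibition of growth.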 The source made the active and inactive calls. Cut-off read from the data, not from the text of the source: active = GI50 up to about 1.1 µM and inactive = higher. Some results are limits rather than exact numbers.

Assay in all cases: growth of human tumour cells (NCI), 48 h
For experiment [1], the system named is CAKI-1.
Experiment [2] relates to CCRF-CEM.
Experiment [3] deals with K562.
In experiment [4] the test system is SR.
For experiment [5], the system named is Malme-3M.
The test system of experiment [6] is SN12C.
In experiment [7] the test system is OVCAR-3.
The subject of experiment [8] is SK-MEL-28.
The subject of experiment [9] is HT-29.
The test system of experiment [10] is NCI-H522.
The subject of experiment [11] is SNB-75.
The test system of experiment [12] is HCT-116.
Experiment [13] has as its system SK-OV-3.
For experiment [14], the system named is NCI-H460.
Experiment [15] has as its system SF-295.
Experiment [16] deals with U-251.
Experiment [17] has as its system SK-MEL-2.
Experiment [18] relates to SW-620.
The test system of experiment [19] is HOP-62.
Experiment [20] deals with UACC-62.

`CC(=O)OC(C)(C)/C=C/C(=O)[C@](C)(O)[C@H]1[C@H](O)C[C@@]2(C)[C@@H]3CC=C4[C@@H](C[C@H](O)[C@H](O)C4(C)C)[C@]3(C)C(=O)C[C@]12C`: the GI50 in experiment [1] is 0.385 µM (active); in experiment [2] it was 0.229 µM (active); in [3] it was 0.272 µM (active); in [4] it was 0.224 µM (active); in experiment [5], 1.11 µM (active); in experiment [6], 0.401 µM (active). For the same compound, the GI50 in [7] is 0.314 µM (active); in [8], 0.526 µM (active); in [9], 0.302 µM (active); in [10], 0.259 µM (active); in [11], 0.261 µM (active); in [12], 0.277 µM (active). In addition, the GI50 was 2.79 µM (inactive) in [13]; 1.07 µM (active) in [14]; 0.973 µM (active) in experiment [15]; 0.687 µM (active) in experiment [16]; 0.752 µM (active) in experiment [17]; 0.274 µM (active) in [18]. For the same compound, the GI50 in experiment [19] is 1.51 µM (inactive); in experiment [20], 0.48 µM (active).

Take `COc1ccc(CNc2cc(=O)n(C)c(=O)[nH]2)cc1`: the GI50 in experiment [1], in experiment [2], in experiment [3], in experiment [4], in experiment [5] and in experiment [6] was > 100 µM (inactive) each time. The GI50 in experiment [7] was > 100 µM (inactive); in experiment [8], > 100 µM (inactive); in experiment [9], > 100 µM (inactive); in [10], > 100 µM (inactive); in experiment [11], 33.3 µM (inactive); in experiment [12] it was > 100 µM (inactive). In addition, the GI50 in experiment [13], in experiment [14], in experiment [15], in [16], in [17] and in experiment [18] was > 100 µM (inactive) in each case. Also, the GI50 in experiment [19] and in [20] was > 100 µM (inactive) in each case.

`C=C(CN(CC)CC)C1(c2ccccc2)CC2(CCCC2)C(=O)O1` (stereo not given): the GI50 in [1], in [2], in experiment [3], in experiment [4], in experiment [5] and in experiment [6] was > 100 µM (inactive) throughout. Also, the GI50 is 82 µM (inactive) in [7]; > 100 µM (inactive) in experiment [8]; 24.2 µM (inactive) in experiment [9]; 35 µM (inactive) in experiment [10]; 33 µM (inactive) in experiment [11]; 38.3 µM (inactive) in [12]. Moreover, the GI50 in [13] is > 100 µM (inactive); in [14] it was 68.7 µM (inactive); in experiment [15], > 100 µM (inactive); in [16] it was > 100 µM (inactive); in [17], > 100 µM (inactive); in experiment [18] it was > 100 µM (inactive). For the same compound, the GI50 in [19] and in experiment [20] was > 100 µM (inactive) each time.

As for `CO[C@]12C[C@H](CNC(=O)c3cc(Br)c(Br)[nH]3)O[C@H]1NC(=O)N2`, the GI50 was > 100 µM (inactive) in [1]; 0.548 µM (active) in [2]; > 100 µM (inactive) in experiment [3]; > 100 µM (inactive) in experiment [4]; > 100 µM (inactive) in experiment [5]; > 100 µM (inactive) in experiment [6]. Also, the GI50 in experiment [7], in experiment [8], in experiment [9], in [10], in experiment [11] and in [12] was > 100 µM (inactive) in each case. Also, the GI50 in [13], in experiment [14], in experiment [15], in experiment [16], in experiment [17] and in [18] was > 100 µM (inactive) each time. For the same compound, the GI50 in experiment [19] and in [20] was > 100 µM (inactive) in each case.

For `Cc1csc2c(P(=O)(OC(C)C)OC(C)C)c(-c3ccccc3)cn12`, the GI50 was 18.2 µM (inactive) in [1]; 16.7 µM (inactive) in experiment [2]; 17.6 µM (inactive) in experiment [3]; 16.6 µM (inactive) in experiment [4]; 19.9 µM (inactive) in experiment [5]; 17.1 µM (inactive) in [6]. Moreover, the GI50 in [7] was 14.4 µM (inactive); in experiment [8], 17.7 µM (inactive); in experiment [9], 15.6 µM (inactive); in [10], 15.3 µM (inactive); in [11], 14.5 µM (inactive); in experiment [12], 14.2 µM (inactive). The GI50 in experiment [13] was 18.5 µM (inactive); in [14], 16.5 µM (inactive); in [15], 16.9 µM (inactive); in [16], 16 µM (inactive); in [17], 16 µM (inactive); in experiment [18] it was 18.3 µM (inactive). The GI50 in experiment [19] was 18.2 µM (inactive); in experiment [20] it was 6.62 µM (inactive).

`ClCCNCCNCCCl.ClCCNCCNCCCl.[O-][Cl+3]([O-])([O-])O`: the GI50 in experiment [1] was 19.1 µM (inactive); in [2], 29.5 µM (inactive); in experiment [3], 23.6 µM (inactive); in experiment [4], 23.1 µM (inactive); in experiment [5], 19.5 µM (inactive); in experiment [6], 61.2 µM (inactive). The GI50 was 17.6 µM (inactive) in experiment [7]; 46.2 µM (inactive) in experiment [8]; > 100 µM (inactive) in experiment [9]; 11.4 µM (inactive) in experiment [10]; 19 µM (inactive) in experiment [11]; 27.5 µM (inactive) in experiment [12]. The GI50 in experiment [13] is > 100 µM (inactive); in [14], 22.3 µM (inactive); in experiment [15] it was 54.6 µM (inactive); in experiment [16], 25.4 µM (inactive); in [17], 21.4 µM (inactive); in experiment [18] it was 21 µM (inactive). Moreover, the GI50 was > 100 µM (inactive) in [19] and 26.9 µM (inactive) in [20].

For `CCCCCCCCCCCCCCCCCCNc1ccn(C2OC(CO)C(OP(=O)(O)OCC(COP(=O)(O)OCC3OC(n4cc(F)c(NCCCCCCCCCCCCCCCCCC)nc4=O)CC3O)OC(=O)CCCCCCCCCCCCCCC)C2O)c(=O)n1` (stereo not given), the GI50 in experiment [1] was > 100 µM (inactive); in experiment [2], 95.3 µM (inactive); in experiment [3], 3.01 µM (inactive); in [4], > 100 µM (inactive); in experiment [5], > 100 µM (inactive); in [6], > 100 µM (inactive). Besides, the GI50 in [7], in experiment [8], in experiment [9], in experiment [10], in experiment [11] and in [12] was > 100 µM (inactive) in each case. The GI50 in [13], in experiment [14], in experiment [15], in experiment [16], in experiment [17] and in experiment [18] was > 100 µM (inactive) in each case. Also, the GI50 in experiment [19] and in experiment [20] was > 100 µM (inactive) in each case.

On to `[O-][S+]1C(=c2ccc(=C3Sc4ccccc4S3)cc2)Sc2ccccc21` (stereo not given), for which the GI50 in experiment [1] is > 52.7 µM (inactive); in experiment [2] it was > 94.4 µM (inactive); in experiment [3], > 66.7 µM (inactive); in experiment [4], 89.5 µM (inactive); in experiment [5] it was > 100 µM (inactive); in [6] it was 15.6 µM (inactive). Further, the GI50 in [7] is > 100 µM (inactive); in experiment [8] it was 3.03 µM (inactive); in experiment [9], 22.6 µM (inactive); in [10], > 100 µM (inactive); in [11] it was 19.1 µM (inactive); in [12], 25.1 µM (inactive). The GI50 in experiment [13] was 21.8 µM (inactive); in experiment [14], 18.2 µM (inactive); in experiment [15], 17.1 µM (inactive); in [16], 14.9 µM (inactive); in experiment [17], 21.3 µM (inactive); in experiment [18], > 100 µM (inactive). Also, the figures for the GI50 in experiment [19] and in experiment [20] were 17.7 µM (inactive) and 18.1 µM (inactive), respectively.

Turning to `C=C(C(=O)O[C@H]1C(=O)C2=C(C)CCC3C(=C)C(=O)O[C@@H]3C2[C@]1(C)O)C1CC[C@]2(C)CCCC(=C)[C@H]2C1` (stereo not given in full), the GI50 in experiment [1] was 8.71 µM (inactive); in experiment [2] it was < 0.01 µM (active); in experiment [3] it was 6.11 µM (inactive); in experiment [4], 7.4 µM (inactive); in [5] it was 8.83 µM (inactive); in experiment [6], 2.48 µM (inactive). Also, the GI50 in [7] is 4.75 µM (inactive); in experiment [8] it was 5.92 µM (inactive); in [9] it was 4.24 µM (inactive); in experiment [10] it was 3.53 µM (inactive); in [11] it was 0.327 µM (active); in experiment [12], 3.28 µM (inactive). For the same compound, the GI50 is 16.9 µM (inactive) in experiment [13]; 3.16 µM (inactive) in experiment [14]; 15.5 µM (inactive) in experiment [15]; 4.94 µM (inactive) in experiment [16]; 8.45 µM (inactive) in [17]; 7.46 µM (inactive) in experiment [18]. The GI50 in experiment [19] is 8.32 µM (inactive); in experiment [20] it was 1.9 µM (inactive).

Regarding `CN(C)c1ccc(/C=C2\N=C(c3ccc([N+](=O)[O-])cc3)OC2=O)cc1`, the GI50 is > 100 µM (inactive) in experiment [1]; 43.7 µM (inactive) in [2]; 36.1 µM (inactive) in [3]; 38.4 µM (inactive) in experiment [4]; 49.2 µM (inactive) in experiment [5]; > 100 µM (inactive) in experiment [6]. The GI50 in experiment [7] is 44.9 µM (inactive); in [8] it was > 100 µM (inactive); in [9], 72.6 µM (inactive); in [10], 33.3 µM (inactive); in [11], > 100 µM (inactive); in [12], 34.8 µM (inactive). The GI50 in experiment [13] is > 100 µM (inactive); in experiment [14], 71 µM (inactive); in experiment [15], > 100 µM (inactive); in experiment [16], 53.2 µM (inactive); in experiment [17], > 100 µM (inactive); in experiment [18], 67.6 µM (inactive). The GI50 in experiment [19] was > 100 µM (inactive); in experiment [20], 65.9 µM (inactive).
